Columns and labels:
Assay in all cases: Receptor panel, Study 1
Type in all cases: binding
5-HT5A (h) = 5-HT5A (h) (Homo sapiens, UniProt P47898)
Procedure: (§1) RESULTS AND DISCUSSION—Selectivity—The compound of Formula (III) was evaluated in three selectivity panels to assess the potential for off-target pharmacology (Table 8). […] The kinase off-target profile of The compound of Formula (III) was assessed in a full human wild-type panel using radiometric kinase activity assays (KinaseProfiler™ and IC50Profiler™; Eurofins Scientific) (Table 9; FIG. 23). The compound of Formula (III) inhibited 4/278 kinases >50% at 1 micromolar, identifying BTK and the three other kinases having analogous Cys residues with the potential for covalent inhibition (BMX, TEC, BLK). […]. The cellular kinase selectivity of The compound of Formula (III) was established in native Ramos B cell kinome assays (KiNativ™; ActivX) confirmed BTK as the primary target with inhibition of BLK and TEC inhibition detected (Table 10).

kappa (KOP) = tested on: kappa (KOP)
Procedure: as §1

5-HT1B = 5-HT1B (Rattus norvegicus, UniProt P28564)
Procedure: as §1

M1 (h) = M1 (h) (Homo sapiens, UniProt P11229)
Chain of M1 (h) (P11229 whole entry): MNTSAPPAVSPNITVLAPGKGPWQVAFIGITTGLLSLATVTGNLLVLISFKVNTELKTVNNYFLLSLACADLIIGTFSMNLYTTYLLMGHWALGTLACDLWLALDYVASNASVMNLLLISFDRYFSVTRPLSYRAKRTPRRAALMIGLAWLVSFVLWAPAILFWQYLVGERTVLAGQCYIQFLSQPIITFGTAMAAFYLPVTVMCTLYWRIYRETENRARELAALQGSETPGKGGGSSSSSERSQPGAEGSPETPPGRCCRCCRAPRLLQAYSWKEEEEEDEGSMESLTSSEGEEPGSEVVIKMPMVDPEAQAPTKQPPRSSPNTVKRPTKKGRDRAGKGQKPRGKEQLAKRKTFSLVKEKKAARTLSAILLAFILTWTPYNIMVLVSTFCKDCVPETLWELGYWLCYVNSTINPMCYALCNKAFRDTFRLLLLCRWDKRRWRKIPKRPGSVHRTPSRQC
Procedure: as §1

NK2 (h) = NK2 (h) (Homo sapiens, UniProt P21452)
Procedure: as §1

SK^+Ca channel = tested on: SK^+Ca channel
Procedure: as §1

Vla(h) = Vla(h) (Homo sapiens, UniProt P37288)
Procedure: as §1

M3 (h) = M3 (h) (Homo sapiens, UniProt P20309)
Procedure: as §1

A3 (h) = A3 (h) (Homo sapiens, UniProt P0DMS8)
Chain of A3 (h) (P0DMS8 whole entry): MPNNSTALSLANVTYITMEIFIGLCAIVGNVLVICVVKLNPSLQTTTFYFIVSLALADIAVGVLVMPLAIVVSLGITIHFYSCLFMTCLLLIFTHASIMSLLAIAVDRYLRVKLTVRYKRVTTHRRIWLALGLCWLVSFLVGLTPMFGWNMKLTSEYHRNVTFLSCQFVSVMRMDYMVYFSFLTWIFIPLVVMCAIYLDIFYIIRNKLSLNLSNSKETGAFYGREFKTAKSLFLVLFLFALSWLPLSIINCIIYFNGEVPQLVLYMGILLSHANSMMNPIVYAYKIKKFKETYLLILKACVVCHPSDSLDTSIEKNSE
Procedure: as §1

MC4 (h) = MC4 (h) (Homo sapiens, UniProt P32245)
Chain of MC4 (h) (P32245 whole entry): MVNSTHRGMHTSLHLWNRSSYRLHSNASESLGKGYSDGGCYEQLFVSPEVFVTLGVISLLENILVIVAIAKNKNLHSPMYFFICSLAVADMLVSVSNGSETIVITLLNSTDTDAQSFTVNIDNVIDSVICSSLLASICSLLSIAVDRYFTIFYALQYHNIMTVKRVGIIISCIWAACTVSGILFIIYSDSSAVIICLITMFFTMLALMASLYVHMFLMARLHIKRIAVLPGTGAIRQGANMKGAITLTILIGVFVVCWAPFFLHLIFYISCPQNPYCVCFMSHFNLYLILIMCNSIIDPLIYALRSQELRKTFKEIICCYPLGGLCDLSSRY
Procedure: as §1

alpha 1 = tested on: alpha 1
Procedure: as §1

5-HT7 (h) = 5-HT7 (h) (Homo sapiens, UniProt P34969)
Procedure: as §1

MT1 (h) = MT1 (h) (Homo sapiens, UniProt P48039)
Chain of MT1 (h) (P48039 whole entry): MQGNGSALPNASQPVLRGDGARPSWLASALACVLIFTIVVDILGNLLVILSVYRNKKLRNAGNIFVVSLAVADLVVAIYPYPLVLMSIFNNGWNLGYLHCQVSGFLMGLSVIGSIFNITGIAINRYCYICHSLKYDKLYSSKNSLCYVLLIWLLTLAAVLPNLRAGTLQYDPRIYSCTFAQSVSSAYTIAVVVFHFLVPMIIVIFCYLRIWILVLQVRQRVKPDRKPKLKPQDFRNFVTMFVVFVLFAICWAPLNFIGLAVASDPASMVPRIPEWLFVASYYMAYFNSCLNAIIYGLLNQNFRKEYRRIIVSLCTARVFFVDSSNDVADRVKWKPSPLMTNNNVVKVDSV
Procedure: as §1

alpha 2 = tested on: alpha 2
Procedure: as §1

CCKA (h) (CCK1) = CCKA (h) (CCK1) (Homo sapiens, UniProt P32238)
Chain of CCKA (h) (CCK1) (P32238 whole entry): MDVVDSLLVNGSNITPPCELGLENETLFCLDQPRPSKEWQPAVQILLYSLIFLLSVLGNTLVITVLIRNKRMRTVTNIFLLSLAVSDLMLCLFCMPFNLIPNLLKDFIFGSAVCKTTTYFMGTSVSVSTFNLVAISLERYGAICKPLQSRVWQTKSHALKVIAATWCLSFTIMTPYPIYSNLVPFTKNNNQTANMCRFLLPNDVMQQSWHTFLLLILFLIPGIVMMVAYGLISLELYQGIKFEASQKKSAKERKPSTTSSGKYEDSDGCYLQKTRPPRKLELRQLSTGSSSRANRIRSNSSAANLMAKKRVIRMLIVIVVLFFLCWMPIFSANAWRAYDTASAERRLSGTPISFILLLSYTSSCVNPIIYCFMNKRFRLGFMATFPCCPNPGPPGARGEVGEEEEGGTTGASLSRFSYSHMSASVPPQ
Procedure: as §1

H1 (h) = H1 (h) (Homo sapiens, UniProt P35367)
Procedure: as §1

5-HT6 (h) = 5-HT6 (h) (Homo sapiens, UniProt P50406)
Procedure: as §1

H2 (h) = H2 (h) (Homo sapiens, UniProt P25021)
Procedure: as §1

ETA (h) = ETA (h) (Homo sapiens, UniProt P25101)
Procedure: as §1

VIP1 (h) (VPAC1) = VIP1 (h) (VPAC1) (Homo sapiens, UniProt P32241)
Procedure: as §1

A2A (h) = A2A (h) (Homo sapiens, UniProt P29274)
Chain of A2A (h) (P29274 whole entry): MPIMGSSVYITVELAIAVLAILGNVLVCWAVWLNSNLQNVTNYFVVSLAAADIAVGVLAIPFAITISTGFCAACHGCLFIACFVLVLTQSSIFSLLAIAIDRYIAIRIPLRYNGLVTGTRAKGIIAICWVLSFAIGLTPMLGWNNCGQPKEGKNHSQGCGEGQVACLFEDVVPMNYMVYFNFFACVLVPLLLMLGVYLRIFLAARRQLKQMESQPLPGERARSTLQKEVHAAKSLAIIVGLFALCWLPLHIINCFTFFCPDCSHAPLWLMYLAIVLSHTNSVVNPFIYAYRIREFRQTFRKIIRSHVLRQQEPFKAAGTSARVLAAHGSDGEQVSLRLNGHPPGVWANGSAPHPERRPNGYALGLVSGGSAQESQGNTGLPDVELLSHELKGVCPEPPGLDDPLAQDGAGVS
Procedure: as §1

ORL1 (h) (NOP) = ORL1 (h) (NOP) (Homo sapiens, UniProt P41146)
Procedure: as §1

GABA = tested on: GABA
Procedure: as §1

B2 (h) = B2 (h) (Homo sapiens, UniProt P30411)
Chain of B2 (h) (P30411 whole entry): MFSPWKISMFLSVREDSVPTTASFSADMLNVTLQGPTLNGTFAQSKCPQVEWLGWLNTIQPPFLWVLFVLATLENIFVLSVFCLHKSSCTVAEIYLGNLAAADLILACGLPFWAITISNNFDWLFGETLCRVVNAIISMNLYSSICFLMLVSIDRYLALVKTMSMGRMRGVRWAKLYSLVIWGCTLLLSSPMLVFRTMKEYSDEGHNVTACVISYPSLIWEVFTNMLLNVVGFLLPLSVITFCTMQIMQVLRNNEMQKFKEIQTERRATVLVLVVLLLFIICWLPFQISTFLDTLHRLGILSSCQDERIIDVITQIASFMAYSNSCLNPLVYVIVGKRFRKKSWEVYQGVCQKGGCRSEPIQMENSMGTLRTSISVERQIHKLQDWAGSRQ
Procedure: as §1

Y1 (h) = Y1 (h) (Homo sapiens, UniProt P25929)
Procedure: as §1

Y2 (h) = Y2 (h) (Homo sapiens, UniProt P49146)
Procedure: as §1

AT1 (h) = AT1 (h) (Homo sapiens, UniProt P30556)
Procedure: as §1

5-HT3 (h) = 5-HT3 (h) (Homo sapiens, UniProt P46098)
Chain of 5-HT3 (h) (P46098 24-478): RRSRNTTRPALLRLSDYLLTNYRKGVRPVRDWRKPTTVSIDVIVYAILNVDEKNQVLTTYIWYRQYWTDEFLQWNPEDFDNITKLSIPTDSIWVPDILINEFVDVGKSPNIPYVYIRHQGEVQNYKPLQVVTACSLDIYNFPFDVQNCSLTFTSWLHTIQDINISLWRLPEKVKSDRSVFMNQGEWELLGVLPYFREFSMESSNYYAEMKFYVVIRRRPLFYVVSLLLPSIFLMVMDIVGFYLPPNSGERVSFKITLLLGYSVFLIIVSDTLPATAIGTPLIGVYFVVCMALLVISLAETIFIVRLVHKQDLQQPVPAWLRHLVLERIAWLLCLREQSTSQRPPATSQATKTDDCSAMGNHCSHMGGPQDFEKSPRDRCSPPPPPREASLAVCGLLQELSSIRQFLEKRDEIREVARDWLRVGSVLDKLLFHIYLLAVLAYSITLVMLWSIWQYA
Procedure: as §1

CXCR2 (h) (IL-8B) = CXCR2 (h) (IL-8B) (Homo sapiens, UniProt P25025)
Procedure: as §1

GAL2 (h) = GAL2 (h) (Homo sapiens, UniProt O43603)
Procedure: as §1

5-HT1A (h) = 5-HT1A (h) (Homo sapiens, UniProt P08908)
Procedure: as §1

M2 (h) = M2 (h) (Homo sapiens, UniProt P08172)
Chain of M2 (h) (P08172 whole entry): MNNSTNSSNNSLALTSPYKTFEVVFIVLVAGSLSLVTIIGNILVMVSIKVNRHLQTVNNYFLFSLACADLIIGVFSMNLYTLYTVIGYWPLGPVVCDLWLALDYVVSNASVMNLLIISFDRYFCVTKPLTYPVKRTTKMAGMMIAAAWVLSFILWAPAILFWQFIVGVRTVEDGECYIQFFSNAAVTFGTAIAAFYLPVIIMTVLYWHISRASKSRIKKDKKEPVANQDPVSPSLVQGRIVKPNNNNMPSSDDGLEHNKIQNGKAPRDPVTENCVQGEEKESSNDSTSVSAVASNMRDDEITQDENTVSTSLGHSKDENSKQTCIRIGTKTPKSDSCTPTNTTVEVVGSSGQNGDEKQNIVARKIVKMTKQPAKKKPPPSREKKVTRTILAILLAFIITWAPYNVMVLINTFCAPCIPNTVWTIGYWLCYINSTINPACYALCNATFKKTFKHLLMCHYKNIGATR
Procedure: as §1

NK3 (h) = NK3 (h) (Homo sapiens, UniProt P29371)
Procedure: as §1

D2S (h) = D2S (h) (Homo sapiens, UniProt P14416)
Chain of D2S (h) (P14416 1-414 isoform P14416-2): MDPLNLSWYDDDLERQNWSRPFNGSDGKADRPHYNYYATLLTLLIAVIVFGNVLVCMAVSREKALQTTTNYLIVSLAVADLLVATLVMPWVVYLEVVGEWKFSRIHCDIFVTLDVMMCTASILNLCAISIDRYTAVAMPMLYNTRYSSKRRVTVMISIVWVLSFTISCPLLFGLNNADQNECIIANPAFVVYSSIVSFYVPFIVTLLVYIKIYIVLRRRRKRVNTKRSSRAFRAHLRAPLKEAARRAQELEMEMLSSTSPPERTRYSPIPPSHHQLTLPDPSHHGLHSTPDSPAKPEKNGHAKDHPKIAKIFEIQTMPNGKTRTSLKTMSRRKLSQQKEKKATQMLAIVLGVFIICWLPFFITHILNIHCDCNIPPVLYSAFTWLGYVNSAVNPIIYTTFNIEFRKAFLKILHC
Procedure: as §1

delta 2(h) (DOP) = delta 2(h) (DOP) (Homo sapiens, UniProt P41143)
Chain of delta 2(h) (DOP) (P41143 whole entry): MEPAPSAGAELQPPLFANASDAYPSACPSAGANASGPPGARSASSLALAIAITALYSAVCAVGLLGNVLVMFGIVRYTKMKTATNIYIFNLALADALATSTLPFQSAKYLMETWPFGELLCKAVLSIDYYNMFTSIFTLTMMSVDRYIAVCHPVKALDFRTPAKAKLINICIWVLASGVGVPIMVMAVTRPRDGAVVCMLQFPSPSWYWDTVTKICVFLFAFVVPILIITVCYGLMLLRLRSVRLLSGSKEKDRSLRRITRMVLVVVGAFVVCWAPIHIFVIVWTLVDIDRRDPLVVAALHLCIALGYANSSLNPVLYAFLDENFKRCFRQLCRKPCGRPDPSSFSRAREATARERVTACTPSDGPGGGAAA
Procedure: as §1

CCR1 (h) = CCR1 (h) (Homo sapiens, UniProt P32246)
Chain of CCR1 (h) (P32246 whole entry): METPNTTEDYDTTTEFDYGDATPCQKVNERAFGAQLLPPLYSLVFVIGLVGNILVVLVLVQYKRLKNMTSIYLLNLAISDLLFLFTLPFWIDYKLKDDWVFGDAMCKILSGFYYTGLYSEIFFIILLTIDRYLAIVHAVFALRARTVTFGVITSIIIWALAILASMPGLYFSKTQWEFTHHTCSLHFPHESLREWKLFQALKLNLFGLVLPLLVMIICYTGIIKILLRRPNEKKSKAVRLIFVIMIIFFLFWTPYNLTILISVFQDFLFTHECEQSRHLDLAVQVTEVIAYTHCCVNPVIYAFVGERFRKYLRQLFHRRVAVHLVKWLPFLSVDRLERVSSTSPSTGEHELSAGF
Procedure: as §1

K^+V channel = tested on: K^+V channel
Procedure: as §1

sst (non-selective) = tested on: sst (non-selective)
Procedure: as §1

5-HT2A (h) = 5-HT2A (h) (Homo sapiens, UniProt P28223)
Procedure: as §1

For `C=CC(=O)N[C@H]1CCC[C@H]1NC(=O)c1sc2nccc3c2c1NC(=O)N3c1cnc(CC(C)C)cc1C` (atropisomer, axis not shown) [compound of Formula (III), N-((1R,2S)-2-Acrylamidocyclopentyl)-5-(S)-(6-isobutyl-4-methylpyridin-3-yl)-4-oxo-4,5-dihydro-3H-1-thia-3,5,8-triazaacenaphthylene-2-carboxamide], the inhibition at 10 µM (5-HT5A (h)) was < 10%, the “% Inhibition at 10 μM” value (kappa (KOP)) was “— (no inhibition observed)” and the inhibition at 10 µM (5-HT1B) was < 10%. The inhibition at 10 µM (M1 (h)) was < 10%, the inhibition at 10 µM (NK2 (h)) was 16% and the “% Inhibition at 10 μM” value (SK^+Ca channel) was “— (no inhibition observed)”. The inhibition at 10 µM (Vla(h)) was < 10%, the inhibition at 10 µM (M3 (h)) was < 10% and the inhibition at 10 µM (A3 (h)) was < 10%. The inhibition at 10 µM (MC4 (h)) was < 10%, the “% Inhibition at 10 μM” value (alpha 1) was “— (no inhibition observed)” and the inhibition at 10 µM (5-HT7 (h)) was < 10%. The inhibition at 10 µM (MT1 (h)) was 13.4%, the “% Inhibition at 10 μM” value (alpha 2) was “— (no inhibition observed)” and the inhibition at 10 µM (CCKA (h) (CCK1)) was 23.7%. For the same compound, the inhibition at 10 µM (H1 (h)) was < 10%, the inhibition at 10 µM (5-HT6 (h)) was < 10% and the inhibition at 10 µM (H2 (h)) was < 10%. The inhibition at 10 µM (ETA (h)) was < 10%, the inhibition at 10 µM (VIP1 (h) (VPAC1)) was < 10% and the inhibition at 10 µM (A2A (h)) was < 10%. The inhibition at 10 µM (ORL1 (h) (NOP)) was 14.6%, the “% Inhibition at 10 μM” value (GABA) was “— (no inhibition observed)” and the inhibition at 10 µM (B2 (h)) was < 10%. For the same compound, the inhibition at 10 µM (Y1 (h)) was 44.4%, the inhibition at 10 µM (Y2 (h)) was < 10% and the inhibition at 10 µM (AT1 (h)) was < 10%. The inhibition at 10 µM (5-HT3 (h)) was < 10%, the inhibition at 10 µM (CXCR2 (h) (IL-8B)) was < 10% and the inhibition at 10 µM (GAL2 (h)) was < 10%. For the same compound, the inhibition at 10 µM (5-HT1A (h)) was < 10%, the inhibition at 10 µM (M2 (h)) was < 10% and the inhibition at 10 µM (NK3 (h)) was 38.9%. For the same compound, the inhibition at 10 µM (D2S (h)) was < 10%, the inhibition at 10 µM (delta 2(h) (DOP)) was < 10% and the inhibition at 10 µM (CCR1 (h)) was < 10%. The “% Inhibition at 10 μM” value (K^+V channel) was 12.2%, the “% Inhibition at 10 μM” value (sst (non-selective)) was “— (no inhibition observed)” and the inhibition at 10 µM (5-HT2A (h)) was < 10%.
